# Data taken from patent US20220047596A1, “COMBINATION OF PARP INHIBITOR AND BRD4 INHIBITOR FOR THE TREATMENT OF CANCER” (Board of Regents, The University of Texas System, priority 2018, published 2022).
# Tests used:
# cancer cell lines = assay: Viability measurement (PrestoBlue, 96 hr) with CalcuSyn combination index; format: cell-based, Human; design: synergy with JQ1 at fixed PARPi concentration: dose or concentration left out as unconfirmed; conditions: for synergy with JQ1 at fixed PARPi concentration: 96 hr, HOC1 cells; for synergistic effects in combinations with BRD4i (JQ1): similar combination indices indicative of synergy
# Protocol: (§1) Viability Measurements: Five thousand cells were seeded into sterile 96-well plates and treated with indicated drug combinations for 96 hr. DMSO was used as a vehicle. PrestoBlue® Cell Viability Reagent (Thermo Fisher Scientific) was used to assess cell viability. Background values from empty wells were subtracted and data normalized to vehicle-treated control. Synergistic effects between both compounds were calculated using the Chou-Talalay equation in CalcuSyn software, which takes into account both potency (IC50) and shape of the dose-effect curve. […], and CI>1 indicates antagonism.
# PARP = conditions: cited from earlier work
# HRD gene signature = HRD gene signature score applied to public transcriptional profiling data; conditions: human or murine tumors; GEO datasets
# Excerpt: Microarray Analysis and IPA Analysis: Gene expression datasets of GSE29799 (Zuber et al., 2011), GSE66048 (Ambrosini et al., 2015), GSE44929 (Love′ n et al., 2013), GSE85840 (Rhyasen et al., 2016), GSE31365 (Delmore et al., 2011), and GSE43392 (Puissant et al., 2013) were downloaded from Gene Expression Omnibus (GEO) (https://www.ncbi.nlm.nih.gov/geo). Raw data were subjected to intensity normalization using affy package in R (Bioconductor), followed by log transformation and quantile normalization. Normalized data were checked for quality and determined to be free of outliers by analysis using box plots, density plots and MA plots. Differential expression genes after BRD4 inhibition were calculated using a linear model provided by the limma package in R based on the cutoffs: 2 for absolute fold change, 0.05 for p value.
# HRD Score Acquisition from HRD Signature HRD signature consisting of 230 differentially expressed genes was obtained as previously described (Peng et al., 2014). Normalized gene expression data (GSE29799, GSE66048, GSE44929, GSE85840, GSE31365, and GSE43392) after BRD4 inhibition were subjected to unsupervised clustering with these 230 genes. HRD scores were determined by calculating the Pearson's correlations between median centered gene expression levels for HRD signature and gene expression levels for a given sample (Peng et al., 2014).
# U2OS DR-GFP cells = assay: U2OS DR-GFP HR reporter assay; format: cell-based, Human; conditions: 100 nM for 24 hr, then I-Sce1 for 48 hr
# Excerpt: HR Repair Analysis: U2OS DR-GFP cells contain a single copy of the HR repair reporter substrate DR-GFP, which contains two nonfunctional GFP open reading frames, including one GFP-coding sequence that is interrupted by a recognition site for the I-SceI endonuclease. Expression of I-SceI leads to formation of a DSB in the I-SceI GFP allele, which can be repaired by HR using the nearby GFP sequence lacking the N- and C-termini, thereby producing functional GFP that can be detected by flow cytometry. […] Then, cells were transfected with a plasmid expressing I-SceI (pCBASce) for 48 hr. Cells transfected with an empty vector were used as a negative control. GFP-expressing plasmid (pEGFP-C1) was used for transfection efficiency control. Flow cytometry analysis was performed to detect GFP^+ cells using FACScalibur with CellQuest software (Becton Dickinson). The repair efficiency was scored as the percentage of GFP^+ cells.
# HOC1 cells [1] = assay: RPA and RAD51 foci immunofluorescence; format: cell-based, Human; conditions: after PARPi or IR, compared with vehicle
# Protocol: Immunofluorescence Staining and Microscopy: Briefly, cells were washed with PBS and fixed with 4% paraformaldehyde for 5 min, followed by permeabilization with 0.5% NP-40 and 1% Triton X-100 for 10 min Cells were then blocked with 5% FBS for 30 min and incubated with primary antibody (anti-RAD51, PC130, 1:100; anti-g-H2AX (Ser139), clone JBW301, 1:1000 from Millipore Corp; anti-RPA32, ab2175, 1:500 from Abcam) for 2 hr, followed by secondary antibody incubation for 1 hr at room temperature. Slides were sealed in mounting medium containing DAPI (Vector Laboratories, H1200) for further image acquisition. TE-2000 imaging acquisition system (Nikon) equipped with a 60× objective lens was used to capture images. Stained was quantified by ImageJ.
# OVCAR3 xenografts = assay: OVCAR3 xenograft; format: in vivo, mice; conditions: Olaparib 100 mg/kg, AZD5153 2.5 mg/kg, oral gavage, daily, 35 days
# Protocol: 6 weeks old female C.B-17 scid mice were purchased from Charles River Laboratories and used for OVCAR3 xenografts. Tumor cells were injected into female mice of approximately 8-10 weeks of age. All mice were housed under pathogen-free conditions at AstraZeneca AAALAC accredited facility. All animal experiments were conducted in compliance with the National Institute of Health guidelines for animal research and approved by the Institutional Animal Care and Use Committee of AstraZeneca.
# OVCAR3 Xenograft: […] OVCAR3 cells were injected subcutaneously in the right flank of mice. Mice were randomized based on tumor volumes using stratified sampling and enrolled into control and treatment groups. Dosing began when mean tumor size reached approximately 200 mm^3 and continued for 35 days.
# [2] = Toxicity analysis in the T127 model (blood counts, serum chemistry); format: in vivo, mice; conditions: compared with the vehicle group
# Excerpt: Mice were sacrificed when tumor diameter reached maximum limits of 2.5 cmat Day 22 for tissue harvest and blood collection 3 hr after the final treatment.
# HOC1 cells [3] = assay: Alkaline comet assay; format: cell-based, Human; conditions: 200 nM each, 48 hr
# Protocol: Alkaline Single-Cell Agarose Gel Electrophoresis (Comet) Assays: Alkaline comet assays were performed with Comet Assay Kit (Trevigen) using manufacturer's instructions. Briefly, cell suspensions were embedded in LM (low melting) Agarose and deposited on comet slides. Slides were incubated for 1 hr at 4° C. in lysis solution, followed by immersing slides in freshly prepared alkaline unwinding solution (pH >13) for 20 min at room temperature in the dark. Electrophoresis was carried out for 30 min at 21 V in electrophoresis solution (pH >13). Slides were then stained with SYBR™ Gold (Thermo Fisher Scientific). Tail DNA content was analyzed with Comet score 1.5 software. DNA strand breakage was expressed as “comet tail moment”. The tail moment was measured for a minimum of 50 cells per sample, and average damage from 3 independent experiments was calculated.
# DT40 cells = assay: Viability dose response in DT40 WT and PARP1-/- cells; format: cell-based, Chicken
# Protocol: as §1
Compound,synergy with JQ1 at fixed PARPi concentration (cancer cell lines),synergistic effects in combinations with BRD4i (JQ1) (cancer cell lines),PARP trapping activity (PARP),tumor growth inhibitions (TGI) (OVCAR3 xenografts) [%],also measured
C[C@]1(c2nc3c(C(N)=O)cccc3[nH]2)CCCN1 [ABT888],synergized with JQ1,synergistic effects were maintained,weakest,,concentration required for PARP trapping (PARP): 50 mM
COc1nnc2ccc(N3CCC(c4ccc(OCCN5CCN(C)C(=O)[C@H]5C)cc4)CC3)nn12 [AZD5153],,,,83,HRD score (HRD gene signature): increased HRD score; HR repair (percentage of GFP+ cells) (U2OS DR-GFP cells): attenuated HR repair; RAD51 nuclear foci (HOC1 cells [1]): decreased RAD51 nuclear foci; numbers of white blood cells [2]: slight decrease but remained in the normal range
Cn1ncnc1[C@H]1c2n[nH]c(=O)c3cc(F)cc(c23)N[C@@H]1c1ccc(F)cc1 [BMN673],synergized with JQ1,,most active,,"DNA damage (comet assay) (HOC1 cells [3]): modestly induced DNA damage; sensitivity of cell lines to PARPi alone (cancer cell lines; OAW42, A2780CP, A2780, UWB1.289, OC316, ARK1, HCC1187, BT20, MDA-MB-436): highly sensitive; sensitivity of PARP1-/- DT40 (DT40 cells): resistant"
NC(=O)c1cccc2cn(-c3ccc([C@@H]4CCCNC4)cc3)nc12 [Niraparib],,,intermediate in activity,,
O=C(c1cc(Cc2n[nH]c(=O)c3ccccc23)ccc1F)N1CCN(C(=O)C2CC2)CC1 [Olaparib],synergized with JQ1,synergistic effects were maintained,,35,
CNCc1ccc(-c2[nH]c3cc(F)cc4c3c2CCNC4=O)cc1 [Rucaparib],,,intermediate in activity,,
